Our source for the IC50 values is patent US7868005B2, “Pyrazinyl substituted piperazine-piperidines with CXCR3 antagonist activity” (Schering Corporation, priority 2005, dated 2011).

Read-outs that look alike come from different tables or passages of the source.

This test has as its target T1, human CXCR3 (N-delta 4) (Homo sapiens, UniProt P49682).
T1 construct: CD8 leader (N); Flag; expressed in transfected cells; membranes prepared
T1 sequence (P49682 5-368 limits assumed): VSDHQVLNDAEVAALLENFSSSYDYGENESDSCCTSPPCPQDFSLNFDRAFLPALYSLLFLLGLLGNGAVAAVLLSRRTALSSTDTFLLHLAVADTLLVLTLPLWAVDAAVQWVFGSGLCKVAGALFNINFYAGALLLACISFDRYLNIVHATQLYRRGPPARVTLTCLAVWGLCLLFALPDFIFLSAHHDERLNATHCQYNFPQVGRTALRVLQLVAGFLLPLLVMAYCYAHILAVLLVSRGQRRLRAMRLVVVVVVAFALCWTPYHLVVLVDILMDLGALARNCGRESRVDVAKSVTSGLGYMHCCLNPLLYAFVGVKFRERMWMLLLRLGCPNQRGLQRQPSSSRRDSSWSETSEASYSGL
Kind of test: Human CXCR3 (N-delta 4) Scintillation Proximity Assay (SPA), [125I] IP-10 binding to Ba/F3-hCXCR3 membranes. The text has this:
The inventive compounds can readily be evaluated to determine activity at the CXCR3 receptors by known methods, such as, for example, development of a human CXCR3 (N-delta 4) Binding Assay.
Cloning and Expression of Human CXCR3 (N-delta 4):
The DNA encoding human CXCR3 was cloned by PCR using human genomic DNA (Promega, Madison, Wis.) as a template. The PCR primers were designed based on the published sequence of human orphan receptor GPR9 (1) with incorporated restriction sites, a Kozak consensus sequence, CD8 leader and Flag tag. The PCR product was subcloned into the mammalian expression vector pME18Sneo, a derivative of the SR-alpha expression vector (designated as pME18Sneo-hCXCR3 (N-delta 4).
IL-3-dependent mouse pro-B cells Ba/F3 were transfected by electroporation in 0.4 ml Dulbecco's PBS containing 4×10^6 cells with 20 μg of pME18Sneo-hCXCR3 (N-delta 4) plasmid DNA. Cells were pulsed at 400 Volts, 100 OHMs, 960 μFd. The transfected cells were under selection with 1 mg/ml G418 (Life Technologies, Gaithersburg, Md.). G418-resistant Ba/F3 clones were screened for CXCR3 expression by specific binding of [^125I] IP-10 (NEN Life Science Products, Boston, Mass.).
Preparation of Ba/F3-hCXCR3 (N-delta 4) Membranes:
Ba/F3 cells expressing human CXCR3 (N-delta 4) were pelleted and resuspended in the lysis buffer containing 10 mM HEPES, pH 7.5 and Complete® protease inhibitors (1 tablet per 100 ml) (Boehringer Mannheim, Indianapolis, Ind.) at a cell density of 20×10^6 cells per ml. After 5 minute incubation on ice, cells were transferred to 4639 cell disruption bomb (Parr Instrument, Moline, Ill.) and applied with 1,500 psi of nitrogen for 30 minutes on ice. Large cellular debris was removed by centrifugation at 1,000×g. Cell membrane in the supernatant was sedimented at 100,000×g. The membrane was resuspended in the lysis buffer supplemented with 10% sucrose and stored at −80° C. Total protein concentration of the membrane was determined by BCA method from Pierce (Rockford, Ill.).
Human CXCR3 (N-delta 4) Scintillation Proximity Assay (SPA):
For each assay point, 2 μg of membrane was preincubated for 1 hr with 300 μg wheat germ agglutinin (WGA) coated SPA beads (Amersham, Arlington Heights, Ill.) in the binding buffer (50 mM HEPES, 1 mM CaCl2, 5 mM MgCl2, 125 mM NaCl, 0.002% NaN3, 1.0% BSA) at room temperature. The beads were spun down, washed once, resuspended in the binding buffer and transferred to a 96-well Isoplate (Wallac, Gaithersburg, Md.). 25 pM of [^125I] IP-10 with tested compounds in a series of titration were added to start the reaction. After 3 hr reaction at room temperature, the amount of [^125I] IP-10 bound to the SPA beads was determined with a Wallac 1450 Microbeta counter.
The Ki ratings for the various compounds of the present invention are given in the afore-mentioned Table 1. From these ratings and value ranges, it would be apparent to the skilled artisan that the compounds of the invention have excellent utility as CXCR3 receptor antagonists.
A general note: In a scintillation proximity assay essentially only radioactivity close to the scintillant gives light.

The mark [1] stands for this setting: IC50 rating, Table 1, read-out: IC50.

What is called IC50 is the midpoint of a concentration-inhibition curve. For the compound `CC[C@H]1CN(c2nc(N)c(C(N)=O)nc2Cl)CCN1C1CCN(Cc2ccc(Cl)cc2C2CNC(=O)O2)CC1` (stereo partly drawn) [compound 385], the IC50 under setting [1] is less than 25 nM. The same measure, in the same setting: the value for `CC[C@H]1CN(c2nc(N)c(C(=O)NC)nc2Cl)CCN1C1CCN([C@H](CO)c2ccc(Cl)cc2)CC1` [compound 74] was 25 to 100 nM; that for `CC[C@H]1CN(c2nc(N)c(C(N)=O)nc2Cl)CCN1C1CCN(Cc2ccc(Cl)cc2CC(=O)NCC2CCCO2)CC1` (stereo partly drawn) [compound 22] was less than 25 nM.

As to `CC[C@H]1CN(c2nc(N)c(C(=O)NCCO)nc2Cl)CCN1C1CCN(Cc2ccc(Cl)cc2NC(N)=O)CC1` [compound 156], under setting [1], the 50% inhibitory concentration (IC50) was less than 25 nM.

Consider `CC[C@H]1CN(c2nc(N)c(C(=O)OC)nc2Cl)CCN1C1CCN(Cc2ccc(Cl)cc2)CC1` [compound 67], for which the IC50 under setting [1] is less than 25 nM. Consider `CC[C@H]1CN(c2nc(N)c(C(=O)NC)nc2Cl)CCN1C1CCN(C(=O)C2CCc3ccccc3C2)CC1` (stereo partly drawn) [compound 370], for which the IC50 under setting [1] is less than 25 nM.

For `CC[C@H]1CN(c2nc(N)c(C(=O)NCCNS(N)(=O)=O)nc2Cl)CCN1C1CCN([C@H](CO)c2ccc(Cl)cc2)CC1` [compound 262], under setting [1], the half-inhibitory concentration (IC50) was greater than 100 nM. Turning to `CC[C@H]1CN(c2ncc(C(=O)NCCO)nc2C)[C@H](C)CN1C1CCN(Cc2ccc(OC(F)(F)F)cc2)CC1` [compound 488], the IC50 under setting [1] is less than 25 nM. `CCC(O)CNC(=O)c1nc(Cl)c(N2CCN(C3CCN(C(=O)c4ccc(Cl)cc4)CC3)[C@@H](CC)C2)nc1N` (stereo partly drawn) [compound 337]: the IC50 under setting [1] was less than 25 nM.

Turning to `CC[C@H]1CN(c2ncc(C(N)=O)nc2Cl)CCN1C1CCN([C@H](CO)c2ccc(Cl)cc2)CC1` [compound 458], the 50% inhibitory concentration (IC50) under setting [1] was less than 25 nM. For `CC[C@H]1CN(c2nc(N)c(C(=O)NC)nc2Cl)CCN1C1CCN(C(=O)c2ccc(Cl)c(F)c2)CC1` [compound 336], under setting [1], the IC50 is less than 25 nM. Turning to `CC[C@H]1CN(c2nc(N)c(C(=O)NCCO)nc2Cl)CCN1C1CCN(C(=O)c2ccc(CS(C)(=O)=O)cc2)CC1` [compound 430], the IC50 under setting [1] was greater than 100 nM. Turning to `CC[C@H]1CN(c2nc(N)c(C(=O)NCCO)nc2Cl)CCN1C1CCN(Cc2ccc(Cl)cc2OCCNC(=O)NC(C)(C)C)CC1` [compound 137], the IC50 under setting [1] is less than 25 nM. On to `CC[C@H]1CN(c2nc(N)c(C(=O)NCCNC(N)=O)nc2Cl)CCN1C1CCN(C(CO)c2ccc(Cl)cc2)CC1` (stereo partly drawn) [compound 231], for which, under setting [1], the half-inhibitory concentration (IC50) was less than 25 nM. Same read-out and setting: next, `CC[C@H]1CN(c2nc(N)c(C(=O)NCCO)nc2Cl)CCN1C1CCN(Cc2ccc(OC)cc2O)CC1` [compound 152]: less than 25 nM; `CC[C@H]1CN(c2nc(N)c(C(=O)NCCO)nc2Cl)CCN1C1CCN(Cc2ccc(Cl)cc2)CC1` [compound 110]: less than 25 nM. Take `CCNC(=O)Nc1cc(Cl)ccc1CN1CCC(N2CCN(c3nc(N)c(C(=O)NCCO)nc3Cl)C[C@@H]2CC)CC1` [compound 157]: under setting [1], the IC50 is less than 25 nM. Same read-out and setting: the value for `CC[C@H]1CN(c2ncc(C(=O)NC3CC3)nc2C)[C@H](C)CN1C1CCN(C(=O)c2ccc(Cl)cc2)CC1` [compound 468] was less than 25 nM. Same read-out and setting: the value for `CC[C@H]1CN(c2nc(N)c(C(=O)NCCO)nc2Cl)CCN1C1CCN(Cc2ccc(Cl)cc2O)CC1` [compound 138] was less than 25 nM; that for `CC[C@H]1CN(c2nc(N)c(C(=O)NCCO)nc2Cl)CCN1C1CCN(Cc2ccc(Cl)cc2C(=O)NCCO)CC1` [compound 176] was less than 25 nM. Turning to `CC[C@H]1CN(c2nc(N)c(C(=O)NC(CO)CO)nc2Cl)CCN1C1CCN(C(=O)c2ccc(Cl)cc2)CC1` [compound 320], the IC50 under setting [1] fell in the range of 25 to 100 nM.

As to `CC[C@H]1CN(c2nc(N)c(C(N)=O)nc2Cl)CCN1C1CCN(Cc2ccc(Cl)cc2CC(=O)NC)CC1` [compound 35], under setting [1], the IC50 lay within 25 to 100 nM. With `CC[C@H]1CN(c2nc(N)c(C(=O)NC(=N)NC)nc2Cl)CCN1C1CCN(Cc2ccc(Cl)c(F)c2)CC1` [compound 389], under setting [1], the IC50 was less than 25 nM. In the case of `CC[C@H]1CN(c2nc(N)c(C(=O)NCCO)nc2Cl)CCN1C1CCN(Cc2ccc(Cl)cc2OCCNC(=O)C(C)(C)C)CC1` [compound 129], the IC50 under setting [1] was less than 25 nM. In the case of `CC[C@H]1CN(c2nc(N)c(C(=O)OC)nc2Cl)CCN1C1CCN(Cc2ccc(Cl)cc2CCN)CC1` [compound 294], under setting [1], the half-maximal inhibitory concentration (IC50) is less than 25 nM. Take `CC[C@H]1CN(c2ncc(C(N)=O)nc2C)CCN1C1CCN([C@H](CO)c2ccc(Cl)cc2)CC1` [compound 444]: the IC50 under setting [1] is less than 25 nM. Take `CC[C@H]1CN(c2ncc(C(N)=O)nc2C)CCN1C1CCN(C(=O)c2ccc(Cl)cc2)CC1` [compound 388]: under setting [1], the IC50 is less than 25 nM. On to `CC[C@H]1CN(c2nc(N)c(C(=O)NCCO)nc2Cl)CCN1C1CCN(C(C(=O)OC)c2ccc(Cl)cc2OC)CC1` (stereo partly drawn) [compound 206], for which the IC50 under setting [1] is greater than 100 nM.

Regarding `CC[C@H]1CN(c2ncc(C(N)=O)nc2C(F)(F)F)CCN1C1CCN(C(=O)c2ccc(Cl)cc2)CC1` [Formula 13], the IC50 (human, read-out: human IC50) is less than 1 nM. Take `CC[C@H]1CN(c2nc(N)c(C(=O)NCCO)nc2Cl)CCN1C1CCN(C(=O)c2ccc(Cl)cc2OCCN)CC1` [compound 326]: the IC50 under setting [1] is greater than 100 nM. As for `CCOC(=O)/N=C(\N)c1cc(Cl)ccc1CN1CCC(N2CCN(c3nc(N)c(C(=O)NCCO)nc3Cl)C[C@@H]2CC)CC1` [compound 114], under setting [1], the IC50 is less than 25 nM. Same read-out and setting: next, `CC[C@H]1CN(c2nc(N)c(C(=O)NC3CC3)nc2Cl)CCN1C1CCN(Cc2ccc(Cl)cc2OCCO)CC1` [compound 85]: less than 25 nM; `CC[C@H]1CN(c2ncc(C(N)=O)nc2C(F)(F)F)[C@H](C)CN1C1CCN(C(=O)c2ccc(Cl)cc2)CC1` [compound 478]: less than 25 nM; `CC[C@H]1CN(c2nc(N)c(C(=O)NCCNS(N)(=O)=O)nc2Cl)CCN1C1CCN(C(C(=O)OC)c2ccc(Cl)cc2)CC1` (stereo partly drawn) [compound 263]: greater than 100 nM. The same measure, in the same setting: the value for `CC[C@H]1CN(c2nc(N)c(C(=O)NCCO)nc2Cl)CCN1C1CCN(Cc2ccc(Cl)cc2OCCNC(=O)OC(C)(C)C)CC1` [compound 120] was less than 25 nM.

In the case of `CC[C@H]1CN(c2nc(N)c(C(N)=O)nc2Cl)CCN1C1CCN(Cc2ccc(Cl)cc2C2OC(=O)N(C)C2=O)CC1` (stereo partly drawn) [compound 406], the concentration for half-maximal inhibition (IC50) under setting [1] is greater than 100 nM. With `CC[C@H]1CN(c2nc(N)c(C(N)=O)nc2Cl)CCN1C1CCN(Cc2ccc(Cl)c(OCCS(C)(=O)=O)c2)CC1` [compound 411], under setting [1], the IC50 was less than 25 nM. Same read-out and setting: the value for `CC[C@H]1CN(c2ncc(C(=O)NC3CC3)nc2C)CCN1C1CCN(C(=O)c2ccc(C(F)(F)F)cc2)CC1` [compound 483] was less than 25 nM; that for `COC(=O)c1nc(Cl)c(N2CCN(C3CCN(Cc4ccc(Cl)cc4)CC3)[C@@H](C)C2)nc1N` [compound 302] was greater than 100 nM; that for `CC[C@H]1CN(c2nc(N)c(C(N)=O)nc2Cl)CCN1C1CCN(Cc2ccc(Cl)cc2C2NC(=O)NC2=O)CC1` (stereo partly drawn) [compound 43] was greater than 100 nM.

`CC[C@H]1CN(c2nc(N)c(C(=O)NCCO)nc2Cl)CCN1C1CCN(Cc2c(O)cc(Cl)cc2Cl)CC1` [compound 186]: under setting [1], the half-inhibitory concentration (IC50) was 25 to 100 nM.

With `CC[C@H]1CN(c2nc(N)c(C(=O)NC[C@@H](O)CO)nc2Cl)CCN1C1CCN(C(=O)c2ccc(Cl)cc2)CC1` [compound 356], under setting [1], the IC50 was greater than 100 nM. For `CC[C@H]1CN(c2nc(N)c(C(=O)NCCNS(N)(=O)=O)nc2Cl)CCN1C1CCN(Cc2ccc(C#N)cc2)CC1` [compound 266], the IC50 under setting [1] was less than 25 nM.

With `CCC1CN(c2nc(N)c(C(=O)NC3CC3)nc2Cl)CCN1C1CCN(C(CCN)c2ccc(Cl)cc2)CC1` (stereo not drawn) [compound 91], the IC50 under setting [1] is less than 25 nM. The same measure, in the same setting: next, `CC[C@H]1CN(c2nc(N)c(C(N)=O)nc2Cl)CCN1C1CCN(C(CO)c2ccc(Cl)cc2)CC1` (stereo partly drawn) [compound 3]: less than 25 nM.
